Data set [1] deals with adhesion of Ramos cells to VCAM-1. The data set can be described thus: Adhesion of Ramos cells to immobilized VCAM-1 (domains 1-3). The class given is cell-based. Particulars: Homo sapiens, Ramos. An excerpt: In Vitro Assay: Adhesion of Ramos Cells to Immobilized VCAM-1 (Domains 1-3) Preparation of VCAM-1 (Extracellular Domains 1-3)
Complementary DNA (cDNA) encoding 7-domain form of VCAM-1 (GenBank accession #M60335) was obtained using Rapid-Screen™ cDNA library panels (OriGene Technologies, Inc) at Takara Gene Analysis Center (Shiga, Japan). The primers used were 5′-CCAAGGCAGAGTACGCAAAC-3′ (sense) and 5′-TGGCAGGTATTATTAAGGAG-3′ (antisense). PCR amplification of the 3-domain VCAM-1 cDNA was perform using Pfu DNA polymerase (Stratagene) with the following sets of primers: (U-VCAMd1-3) 5′-CCATATGGTACCTGATCAATTTAAAATCGAGACCACCCCAGAA-3′; (L-VCAMdl-3) 5-CCATATAGCAATCCTAGGTCCAGGGGAGATCTCAACAGTAAA-3′. PCR cycle was 94° C. for 45 sec, 55° C. for 45 sec, 72° C. for 2 min, repeating 15 cycles. After the purification of the PCR product, the fragment was digested with KpnI-AvrII. The digested fragment was ligated into pBluescript IISK(−) (Strategene), which was linearized by digesting with KpnI-XhoI. The ligation was followed by transformation to a Dam/Dcm methylase-free E. coli strain SCS110 (Strategene) to create the donor plasmid […]. To direct VCAM-1 molecule into the insect cell secretory pathway, the VCAM-1 coding sequence was fused to signal peptide sequence of honeybee melittin. The resulting melittin-VCAM fusion was placed in correct orientation to the baculovirus polyhedrin promoter. Baculovirus transfer vector containing first 3-domain form VCAM-1 (pH10) was constructed by ligation of 0.9 kb fragment from AvrII/Klenow/BclI digests of pH7 into SalI/Klenow/BamHI digests of pMelBacB (Invitrogen). Recombinant baculovirus was generated by using Bac-N-Blue™ Transfection kit (Invitrogen) according to the manufacture's instruction. The recombinant virus was amplified by infection to High-Five™ insect cells for 5-6 days, and virus titer was determined by plaque assay.
High-Five™ insect cells were pelleted in a 225 ml conical tube by centrifugation at 1000 rpm for 5 min. After discarding the supernatant, the pellet was resuspended in 1.5×10^9 pfu (MOI=5) of high-titer virus solution, followed by incubation for 1.5 hours at room temperature. The cells were pelleted again and washed once in fresh Express Five™ serum free medium. The cells were pelleted again and finally, resuspended in 200 ml of fresh Express Five TM medium, transferred to a 1,000 ml shaker flask, and incubated in a shaker at 27° C., 130 rpm, for 48 hours before the culture supernatant was collected. The purification of 3-domain form of VCAM-1 from the culture supernatant was performed by one-step anion exchange chromatography. Protein concentration was determined by using Coomassie protein assay reagent (Pierce) according to the manufacture's instruction.
Preparation of VCAM-1 Coated Microtiter Plates
Recombinant human VCAM-1 (extracellular domains 1-3) was dissolved at 1.0 μg/ml in PBS. Each well of the microtiter plates (Nalge Nunc International, Fluoronunc Cert, 437958) was coated with 100 μl of substrate or for background control with buffer alone for 15 hours at 4 C. After discarding the substrate solution, the wells were blocked using 150 μl per well of block solution (Kirkegaard Perry Laboratories, 50-61-01) for 90 minutes. The plate was washed with wash buffer containing 24 mM Tris-HCl (pH 7.4), 137 mM NaCl, […] and 2 mM MnCl2 just before addition of the assay.
In Vitro Assay using Ramos Cells
Preparation of Fluorescence Labeled Ramos Cells:
Ramos cells (American Type Culture Collection, Clone CRL-1596) were cultured in RPMI 1640 medium (Nikken Bio Medical Laboratory, CM1101) supplemented with 10% fetal bovine serum (Hyclone, A-1119-L), 100 U/ml penicilin (Gibco BRL, 15140-122) and 100 μg/ml streptomycin (Gibco BRL, 15140-122) in a humidified incubator at 37° C. with 5% CO2. […]

Bounds are passed on as bounds.

With `O=C(Cc1ccc2nc(Nc3ccccc3)oc2c1)NCC(=O)Nc1ccc(C(=O)O)cc1` [Example 74, 4-({N-[(2-anilino-1,3-benzoxazol-6-yl)acetyl]glycyl}amino)benzoic acid], the melting point (commonly the temperature, or range, at which the solid turns liquid) was over 280 °C. Further, the IC50 – broadly, the concentration that inhibits the measured activity by half – in data set [1] is under 500 nM.
Taken in the same sequence, the figures for `O=C(CN(CCc1ccccc1)C(=O)Cc1ccc2nc(Nc3ccccc3)oc2c1)Nc1ccc(C(=O)O)cc1` [Example 75, 4-{[N-[(2-anilino-1,3-benzoxazol-6-yl)acetyl]-N-(2-phenylethyl)glycyl]-amino}benzoic acid] were 160 to 162 °C and under 500 nM.
In the same order, the values of `O=C(CN(CCc1ccccn1)C(=O)Cc1ccc2nc(Nc3ccccc3)oc2c1)Nc1ccc(C(=O)O)cc1` [Example 76, 4-({N-[(2-anilino-1,3-benzoxazol-6-yl)acetyl]-N-[2-(2-pyridinyl)ethyl]glycyl}amino)benzoic acid] are 252 to 253 °C and under 500 nM.
Taken in the same sequence, the figures for `O=C(CN(CCc1cccc(Cl)c1)C(=O)Cc1ccc2nc(Nc3ccccc3)oc2c1)Nc1ccc(C(=O)O)cc1` [Example 78] were 162 to 165 °C and 500 to 2000 nM.
`O=C(CN(CCc1ccc(Cl)c(Cl)c1)C(=O)Cc1ccc2nc(Nc3ccccc3)oc2c1)Nc1ccc(C(=O)O)cc1` [Example 79] returned a melting point of 170 to 171 °C. This compound showed an IC50 in data set [1] of 2000 to 10000 nM.
In the same order, the values of `O=C(CN(CCc1ccc(Oc2ccc(Cl)cc2)cc1)C(=O)Cc1ccc2nc(Nc3ccccc3)oc2c1)Nc1ccc(C(=O)O)cc1` [Example 80] are 156 to 158 °C and over 10000 nM.
In the same order, the values of `Cc1ccccc1Nc1nc2ccc(CC(=O)NCC(=O)Nc3ccc(C(=O)O)cc3)cc2o1` [Example 81, 4-{[N-({2-[(2-methylphenyl)amino]-1,3-benzoxazol-6-yl}acetyl)glycyl]-amino}benzoic acid] are 267 to 268 °C and under 500 nM.
Taken in the same sequence, the figures for `Cc1ccccc1Nc1nc2ccc(CC(=O)N(CCc3ccccc3)CC(=O)Nc3ccc(C(=O)O)cc3)cc2o1` [Example 82, 4-{[N-({2-[(2-methylphenyl)amino]-1,3-benzoxazol-6-yl}acetyl)-N-(2-phenylethyl)glycyl]amino}benzoic acid] were 232 to 233 °C and under 500 nM.
On to `Cc1ccccc1Nc1nc2ccc(CC(=O)N(CCc3ccccn3)CC(=O)Nc3ccc(C(=O)O)cc3)cc2o1` [Example 83, 4-({N-({2-[(2-methylphenyl)amino]-1,3-benzoxazol-6-yl}acetyl)-N-[2-(2-pyridinyl)ethyl]glycyl}amino)benzoic acid], for which the melting point lay in the range of 175 to 176 °C. The compound also gave a half-inhibitory concentration (IC50) in data set [1] of under 500 nM.

These data come from patent US20050054582A1, “Para-amino benzoic acids as integrin antagonists” (priority 2001, published 2005).
